For 18 compounds, GI50 and melting point results are on record in US8927560B2, “4-Aza-2, 3-didehydropodophyllotoxin compounds and process for the preparation thereof” (Council of Scientific & Industrial Research, priority 2010, dated 2015).

In general, GI50 refers to the concentration at which growth is held to half of that of the control. One may read the melting point as the temperature of the solid-liquid transition.

For one data set, the system named is Hop62. As to the kind of experiment: SRB in vitro cytotoxicity assay, Hop62 lung cancer cells. Format: cell-based. As to conditions: Homo sapiens, HOP-62, 48 h drug exposure, read-out: In vitro anticancer activity GI50, Lung Hop62. The text has this: (§1) Compounds 4a-4z and 4aa-4ae have been evaluated for their in vitro cytotoxicity in selected human cancer cell lines i.e., colon (Colo205), lung (Hop-62, A549), cervix (SiHa), prostate (PC3), oral (KB, DWD, Gurav), Ovarian (A-2780) and breast (MCF7, Zr-75-1) origin by employing the sulforhodamine B (SRB) assay method (Skehn, P.; Storeng, R.; Scudiero, A.; Monks, J.; MeMohan, D.; Vistica, D.; Jonathan, T. W.; Bokesch, H.; Kenney, S.; Boyd M. R. J. Natl. Cancer Inst. 1990, 82, 1107).
(§2) The synthesized compounds have been evaluated for their in vitro cytotoxicity in human cancer cell lines. A protocol of 48 h continuous drug exposure has been used and a sulforhodamine B (SRB) protein assay has been used to estimate cell viability or growth. The cell lines were grown in DMEM medium containing 10% fetal bovine serum and 2 mM L-glutamine and were inoculated into 96 well microtiter plates in […] at plating densities depending on the doubling time of individual cell lines. The microliter plates were incubated at 37_C, 5% CO2, 95% air, and 100% relative humidity for 24 h prior to addition of experimental drugs. Aliquots of […] of the drug dilutions were added to the appropriate microliter wells already containing […] of cells, suiting in the required final drug concentrations. For each compound four concentrations (0.1, 1, 10 and 100 uM) were evaluated and each was done in triplicate wells. Plates were incubated further for 48 h and assay was terminated by the addition of […] of cold trichloro acetic acid (TCA) (final concentration, 10% TCA) and incubated for 60 min at 4_C. The plates were washed five times with tap water and airdried. Sulforhodamine B (SRB) solution ([…]) at 0.4% (w/v) in 1% acetic acid was added to each of the cells, and plates were incubated for 20 min at room temperature. The residual dye was removed by washing five times with 1% acetic acid. The plates were airdried. Bound stain was subsequently eluted with 10 mM trizma base, and the absorbance was read on an ELISA plate reader at a wavelength of 540 nm with 690 nm reference wavelengths. Percent growth was calculated on a plate by plate basis for test wells relative to control wells. The above determinations were repeated three times. Percentage growth was expressed as the (ratio of average absorbance of the test well to the average absorbance of the control wells)*100. Growth inhibition of 50% (GI50) was calculated from [(Ti−Tz)/(C−Tz)]*100 ¼ 50, which is the drug concentration resulting in a 50% reduction in the net protein increase (as measured by SRB staining) in control cells during the drug incubation. Where, Tz ¼ Optical density at time zero, OD of control ¼ C, and OD of test growth in the presence of drug ¼ Ti.

Another data set concerns KB. The data set is described as follows: SRB in vitro cytotoxicity assay, KB oral cancer cells. Format: cell-based. As to conditions: Homo sapiens, 48 h drug exposure, read-out: In vitro anticancer activity GI50, Oral KB.
Description: as §1, §2

The test system of a further data set is MCF7. The data set is described as follows: SRB in vitro cytotoxicity assay, MCF7 breast cancer cells. The class given is cell-based. As to conditions: Homo sapiens, 48 h drug exposure, read-out: In vitro anticancer activity GI50, Breast MCF7.
Description: as §1, §2

The next data set deals with A-549. The data set is described as follows: SRB in vitro cytotoxicity assay, A-549 lung cancer cells. The class given is cell-based. As to conditions: Homo sapiens, A549, 48 h drug exposure, read-out: In vitro anticancer activity GI50, Lung A-549.
Description: as §1, §2

For the next data set, the system named is A-2780. As to the kind of experiment: SRB in vitro cytotoxicity assay, A-2780 ovarian cancer cells. Format: cell-based. As to conditions: Homo sapiens, A2780, 48 h drug exposure, read-out: In vitro anticancer activity GI50, Ovarian A-2780.
Description: as §1, §2

The next data set deals with DWD. As to the kind of experiment: SRB in vitro cytotoxicity assay, DWD oral cancer cells. As to conditions: Homo sapiens, 48 h drug exposure, read-out: In vitro anticancer activity GI50, Oral DWD. The class given is cell-based.
Description: as §1, §2

In another data set the test system is Zr-75-1. The data set is described as follows: SRB in vitro cytotoxicity assay, Zr-75-1 breast cancer cells. Format: cell-based. As to conditions: Homo sapiens, 48 h drug exposure, read-out: In vitro anticancer activity GI50, Breast Zr-75-1.
Description: as §1, §2

Another data set concerns Colo 205. The data set is described as follows: SRB in vitro cytotoxicity assay, Colo 205 colon cancer cells. Format: cell-based. As to conditions: Homo sapiens, 48 h drug exposure, read-out: In vitro anticancer activity GI50, Colon Colo 205.
Description: as §1, §2

For the next data set, the system named is Gurav. As to the kind of experiment: SRB in vitro cytotoxicity assay, Gurav oral cancer cells. Format: cell-based. As to conditions: Homo sapiens, 48 h drug exposure, read-out: In vitro anticancer activity GI50, Oral Gurav.
Description: as §1, §2

Each structure is given as a SMILES string.

Compound `COc1ccc(-c2noc3c2C(c2cc(OC)c(OC)c(OC)c2)C2=C(COC2=O)N3)cc1` (stereo not drawn) [Compound 4aa, 3-(4-methoxyphenyl)-4-(3,4,5-trimethoxyphenyl)-4,5,7,8 tetrahydrofuro[3′,4′:5,6]pyrido[3,2-d]isoxazol-5-one] returned a melting point of 218 to 219 °C. In addition, the GI50 with Hop62 turned out to be 2.5 µM.
As for `COc1ccc(C2C3=C(COC3=O)Nc3onc(-c4ccc(Cl)cc4)c32)cc1O` (stereo not drawn) [Compound 4ad, 3-(4-chlorophenyl)-4-(3-hydroxy-4-methoxyphenyl)-4,5,7,8-tetrahydrofuro[3′,4′:5,6]pyrido[3,2-d]isoxazol-5-one], the melting point fell in the range of 245 to 246 °C. The GI50 with KB was 2.7 µM.
Compound `COc1cc(C2C3=C(COC3=O)Nc3c2cc(OC)c(OC)c3OC)ccc1O` (stereo not drawn) [Compound 4ae, 9-(4-hydroxy-3-methoxyphenyl)-5,6,7-trimethoxy-1,3,4,9-tetrahydrofuro[3,4-b]quinolin-1-one] had a melting point of 290 to 291 °C. In addition, in the data set with MCF7, the GI50 was found to be 2.9 µM.
In turn, `COc1nc2c(c(OC)n1)C(c1ccc(O)c(OC)c1)C1=C(COC1=O)N2` (stereo not drawn) [Compound 4b, 5-(4-hydroxy-3-methoxyphenyl)-2,4-dimethoxy-5,6,8,9-tetrahydrofuro[3′,4′:5,6]pyrido[2,3-d]pyrimidin-6-one] displayed a melting point of 294 to 296 °C. The GI50 with Hop62 came out at 2.7 µM.
For `COc1nc2c(c(OC)n1)C(c1ccc(OC)c(O)c1)C1=C(COC1=O)N2` (stereo not drawn) [Compound 4c, 5-(3-hydroxy-4-methoxyphenyl)-2,4-dimethoxy-5,6,8,9-tetrahydrofuro[3′,4′:5,6]pyrido[2,3-d]pyrimidin-6-one], the melting point was in the range of 284 to 285 °C. Also, the GI50 in the data set on Hop62 is 2.8 µM.
Take `COc1nc2c(c(OC)n1)C(c1ccc(F)c(OC)c1)C1=C(COC1=O)N2` (stereo not drawn) [Compound 4d, 5-(4-fluoro-3-methoxyphenyl)-2,4-dimethoxy-5,6,8,9-tetrahydrofuro[3′,4′:5,6]pyrido[2,3-d]pyrimidin-6-one]: the melting point lay in the range of 267 to 270 °C. Also, the GI50 in the data set on KB stood at 2.2 µM. Also, the concentration for 50% growth inhibition (GI50) with A-549 came to 2.6 µM.
On to `COc1cc(C2C3=C(COC3=O)Nc3ccc4cc[nH]c4c32)cc(OC)c1OC` (stereo not drawn) [Compound 4e, 10-(3,4,5-trimethoxyphenyl)-6,7,9,10-tetrahydro-1H-furo[3,4-b]pyrrolo[2,3-f]quinolin-9-one], for which the melting point was 299 to 301 °C. For the same compound, in the data set on KB, the GI50 came out at 2 µM. In the data set with A-549, the 50% growth inhibitory concentration (GI50) is 2.4 µM. The GI50 in the data set on A-2780 amounted to 2.7 µM. In addition, the GI50 in the data set on DWD was 2.8 µM. In addition, in the data set with Zr-75-1, the concentration for 50% growth inhibition (GI50) is 2.8 µM. Also, the concentration for 50% growth inhibition (GI50) in the data set with Colo 205 was determined as 2.3 µM.
For the compound `COc1cc(C2C3=C(COC3=O)Nc3ccc4cc[nH]c4c32)ccc1O` (stereo not drawn) [Compound 4f, 10-(4-hydroxy-3-methoxyphenyl)-6,7,9,10-tetrahydro-1H-furo[3,4-b]pyrrolo[2,3-f]quinolin-9-one], the melting point lay within 301 to 303 °C. Moreover, the GI50 in the data set with Gurav was found to be 2.6 µM. For the same compound, the GI50 with DWD came out at 2.4 µM. Moreover, the GI50 in the data set with Zr-75-1 worked out at 2 µM. Moreover, in the data set on MCF7, the GI50 stood at 2.3 µM. Moreover, in the data set on Colo 205, the GI50 came to 2.5 µM.
Regarding `COc1ccc(C2C3=C(COC3=O)Nc3ccc4cc[nH]c4c32)cc1[N+](=O)[O-]` (stereo not drawn) [Compound 4i, 10-(4-methoxy-3-nitrophenyl)-6,7,9,10-tetrahydro-1H-furo[3,4-b]pyrrolo[2,3-f]quinolin-9-one], in the data set with Colo 205, the GI50 worked out at 2.4 µM.
Regarding `COc1cc(C2C3=C(COC3=O)Nc3ccc4cc(C)[nH]c4c32)ccc1F` (stereo not drawn) [Compound 4l, 10-(4-fluoro-3-methoxyphenyl)-2-methyl-6,7,9,10-tetrahydro-1H-furo[3,4-b]pyrrolo[2,3-f]quinolin-9-one], the melting point is 198 to 199 °C. Further, the GI50 in the data set with Gurav worked out at 2.5 µM. For the same compound, in the data set on Hop62, the GI50 amounted to 2.4 µM. In addition, in the data set with A-2780, the GI50 worked out at 2.4 µM. For the same compound, the GI50 in the data set on DWD turned out to be 2.1 µM. The GI50 in the data set on MCF7 came to 2.6 µM.
In turn, `COc1ccc(C2C3=C(COC3=O)Nc3ccc4cc(C)[nH]c4c32)c(F)c1` (stereo not drawn) [Compound 4m, 10-(2-fluoro-4-methoxyphenyl)-2-methyl-6,7,9,10-tetrahydro-1H-furo[3,4-b]pyrrolo[2,3-f]quinolin-9-one] registered a melting point of 205 to 207 °C. For the same compound, in the data set on MCF7, the GI50 was less than 0.1 µM.
`COc1ccc(C2C3=C(COC3=O)Nc3ccc4cn[nH]c4c32)cc1O` (stereo not drawn) [Compound 4p, 10-(3-hydroxy-4-methoxyphenyl)-6,7,9,10-tetrahydro-1H-furo[3,4-b]pyrazolo[3,4-f]quinolin-9-one] displayed a melting point of 243 to 245 °C. In the data set on Hop62, the GI50 is 2.6 µM. Moreover, the GI50 in the data set with Colo 205 was 2.6 µM.
Compound `COc1cc(C2C3=C(COC3=O)Nc3ccc4cn[nH]c4c32)ccc1F` (stereo not drawn) [Compound 4q, 10-(4-fluoro-3-methoxyphenyl)-6,7,9,10-tetrahydro-1H-furo[3,4-b]pyrazolo[3,4-f]quinolin-9-one] gave a melting point of 307 to 309 °C. In the data set on A-549, the GI50 came to 2.3 µM. For the same compound, the GI50 with Gurav amounted to 2.6 µM. Besides, in the data set on MCF7, the GI50 came out at 2.7 µM.
For the compound `COc1cc(C2C3=C(COC3=O)Nc3ccc4ncsc4c32)cc(OC)c1OC` (stereo not drawn) [Compound 4s, 10-(3,4,5-trimethoxyphenyl)-6,7,9,10-tetrahydrofuro[3,4-b][1,3]thiazolo[5,4-f]quinolin-9-one], the melting point was in the range of 309 to 310 °C. Moreover, the GI50 in the data set with KB was 2.1 µM. Further, the GI50 in the data set with A-549 amounted to 2.4 µM. The GI50 in the data set with A-2780 is 2.3 µM. Also, the GI50 in the data set with DWD stood at 2.5 µM. The 50% growth inhibitory concentration (GI50) in the data set with Zr-75-1 came out at 2.1 µM. Also, the GI50 in the data set with Colo 205 was 2.5 µM.
Take `COc1cc(C2C3=C(COC3=O)Nc3ccc4nc(C)sc4c32)ccc1[N+](=O)[O-]` (stereo not drawn) [Compound 4w, 10-(3-methoxy-4-nitrophenyl)-2-methyl-6,7,9,10-tetrahydrofuro[3,4-b][1,3]thiazolo[5,4-f]quinolin-9-one]: the melting point was 190 to 191 °C. Besides, the GI50 with MCF7 amounted to 0.15 µM.
In the same order, the values of `COc1ccc(C2C3=C(COC3=O)Nc3ccc4nc(S)[nH]c4c32)cc1O` (stereo not drawn) [Compound 4x, 10-(3-hydroxy-4-methoxyphenyl)-2-sulfanyl-6,7,9,10-tetrahydro-1H-furo[3,4-b]imidazo[4,5-f]quinolin-9-one] are 334 to 337 °C and 2.7 µM.
The compound `COc1cc(C2C3=C(COC3=O)Nc3ccc4nn[nH]c4c32)cc(OC)c1OC` (stereo not drawn) [Compound 4y, 10-(3,4,5-trimethoxyphenyl)-6,7,9,10-tetrahydro-1H-furo[3,4-b][1,2,3]triazolo[4,5-f]quinolin-9-one] returned a melting point of 324 to 325 °C. In addition, the GI50 in the data set with KB worked out at 2.9 µM.
Consider `COc1ccc(C2C3=C(COC3=O)Nc3ccc4nn[nH]c4c32)c(F)c1` (stereo not drawn) [Compound 4z, 10-(2-fluoro-4-methoxyphenyl)-6,7,9,10-tetrahydro-1H-furo[3,4-b][1,2,3]triazolo[4,5-f]quinolin-9-one], for which the melting point fell in the range of 308 to 310 °C. Besides, in the data set on MCF7, the GI50 was less than 0.1 µM.
